Source: patent US20260182575A1, “MOLECULES HAVING PESTICIDAL UTILITY AND INTERMEDIATES AND PROCESSES RELATED THERETO” (CORTEVA AGRISCIENCE LLC, priority 2022, published 2026)

What was measured:
Format in all cases: in vivo
[1] = system: Fall Armyworm (Spodoptera frugiperda, LAPHFR, FAW); test: Bioassay 7: fall armyworm, artificial diet, 96 well plate
Protocol: (§1) The test solutions were tested against CEW, FAW, BAW, and SBL using the following procedure: an artificial lepidopteran diet (Multispecies Lepidopteran Diet, Southland Products) was distributed in 96 well plate. Twenty μL of test solution was pipetted onto a cell in the bioassay plate. […] Each treatment was replicated 5 times for each species. Approximately five first instar CEW, FAW, BAW, or SBL larva were placed on top of the diet in each cell and was contained with a clear perforated adhesive lid. Test trays were held at approximately 25° C. and ambient relative humidity prior to grading. After five days, the number of cells where all the larvae were dead were recorded as 100% and averaged across all replicates; then the percent control was measured using Abbott's correction formula (W. S. Abbott, J. Econ. Entomol. 18 (1925), pp. 265-267) as follows:
(§2) where X=No. of live larvae on solvent check and Y=No. of live larvae on treated diet. In Table 7 the “Expected % Control” was calculated using the method described in Colby S. R., Weeds, 1967, 15, 20-22. Bioassay 8: Western Corn Rootworm (Diabrotica virgifera virgifera, DIABVI, “WCR”)

[2] = system: Corn Earworm (Helicoverpa zea, HELIZE, CEW); test: Bioassay 7: corn earworm, artificial diet, 96 well plate
Protocol: as §1, §2

[3] = system: Soybean Looper (Chrysodeixis includens, PSEPIN, SBL); test: Bioassay 7: soybean looper, artificial diet, 96 well plate; conditions: CL
Protocol: as §1, §2

[4] = system: Beet Armyworm (Spodoptera exigua, LAPHEG, BAW); test: Bioassay 7: beet armyworm, artificial diet, 96 well plate
Protocol: as §1, §2

[5] = system: Green Peach Aphid (Myzus persicae, MYZUPE, GPA); test: Bioassay 1: green peach aphid, cabbage seedling foliar spray; conditions: AI alone at the rate of Wt Ratio F1:AI 1:10256 (F1 0.04), 3 days
Protocol: Bioassay 1: Green Peach Aphid (Myzus persicae, MYZUPE, “GPA”).
Stock solutions of F1 and various active ingredients were prepared initially at a concentration of 4 milligrams per milliliter (mg/mL) for F1 and 0.1 mg/mL for the active ingredients, respectively, using a 1:1 mixture of acetone:methanol as a diluent. Stock solutions were prepared with F1 as well as for each of the active ingredients individually. Test solutions were prepared from the stock solutions. Test solutions were prepared containing F1, the individual active ingredients, and mixtures of F1 with each of the active ingredients. The test solutions for F1 and the individual active ingredients were prepared by adding 750 microliters (μL) of stock solution to a 25 mL glass vial, then adding 750 μL of 1:1 acetone:methanol solvent, followed by the addition of 13.5 mL water with 0.025% Tween® 20 to create a 0.0005% (weight/volume (w/v)) solution. The test solutions containing mixtures of F1, and the individual active ingredients were prepared by adding 750 μL of the active ingredient stock solution to a 25 mL glass vial, followed by 750 μL of the F1 stock solution, then by the addition of 13.5 mL water with 0.025% Tween® 20 to create a test solution containing 0.0005% (w/v) F1 and 0.0005% (w/v) of the active ingredient. Each test solution was serially diluted to create desired doses of test solutions (0.0005% (w/v), 0.000125% (w/v), 0.00003125% (w/v), 0.0000078% (w/v), 0.00000195% (w/v), and 0.0000005% (w/v)). In test solutions containing mixtures of F1 and the active ingredients, the active ingredients were diluted as described above, but the concentration of F1 was held constant (0.04% (w/v)).
The test solutions were tested against GPA using the following procedure: cabbage seedlings, grown in 3-inch pots with 2-3 small (3-5 centimeter (cm)) true leaves, were used as test substrate. The seedlings were infested with 20-50 GPA (wingless adult and nymph stages) one day prior to chemical application. Four pots with individual seedlings were used for each treatment. A hand-held aspirator-type sprayer was used for spraying a solution to both sides of […] leaves until runoff. Reference plants (solvent check) were sprayed with the diluent only (0.025% Tween® 20 and 10% acetone:methanol (1:1) in water). Treated plants were held in a holding room for three days at approximately 25° C. and ambient relative humidity (RH about 20% to about 45%) prior to grading. Evaluation was conducted by counting the number of live aphids per plant under a microscope three days after treatment. Percent control was measured using Abbott's correction formula (W. S. Abbott, J. Econ. Entomol. 18 (1925), pp. 265-267) as follows:
where X=No. of live aphids on solvent check plants and Y=No. of live aphids on treated plants. In Table B1 the “Expected % Control” was calculated using the method described in Colby S. R., Weeds, 1967, 15, 20-22. Bioassay 2: Sweet Potato Whitefly (Bemisia tabaci, BEMITA, “SPW”).

[6] = system: Corn Earworm (Helicoverpa zea, HELIZE, CEW); test: Bioassay 4: corn earworm, artificial diet, 128-cell tray; conditions: AI alone
Protocol: (§3) Stock solutions were prepared with F1 as well as for each of the active ingredients individually. Test solutions were prepared from the stock solutions. Test solutions were prepared containing F1, the individual active ingredients, and mixtures of F1 with each of the active ingredients. The test solution for F1 was prepared by adding 500 μL of the stock solution to a 25 mL glass vial, then adding 500 μL of a 9:1 mixture of acetone:water. The individual active ingredients were prepared by adding 500 μL of stock solution to a 25 mL glass vial, then adding 500 μL of a 9:1 mixture of acetone:water. The test solutions containing mixtures of F1, and the individual active ingredients were prepared by adding 500 μL of the active ingredient stock solution to a 25 mL glass vial, followed by 500 μL of the F1 stock solution, creating a test solution containing 0.04% (w/v) of F1 and 0.4% (w/v) of the active ingredient. Each test solution was serially diluted to create desired doses of test solutions (F1 at 0.04% (w/v), 0.004% (w/v), 0.0004% (w/v), 0.00004% (w/v), 0.000004% (w/v), and 0.0000004% (w/v) and active ingredients at 0.4% (w/v), 0.04% (w/v), 0.004% (w/v), 0.0004% (w/v), 0.00004% (w/v), and 0.000004% (w/v)).
(§4) The test solutions were tested against CEW, FAW, and SBL using the following procedure: an artificial lepidopteran diet (Multispecies Lepidopteran Diet, Southland Products) was distributed in 128-cell bioassay trays (Frontier Agricultural Sciences™). 50 μL of test solution was pipetted into a cell in the bioassay tray. (The test solution doses of 0.04% (w/v), 0.004% (w/v), 0.0004% (w/v), 0.00004% (w/v), 0.000004% (w/v), and 0.0000004% (w/v) translated to concentrations of 5, 0.5, 0.05, 0.005, 0.0005, and 0.00005 μg/cm^2 on the diet, respectively.) A reference treatment (solvent check) was treated with the diluent only. Each treatment was replicated 8 times for each species. A 2nd instar CEW, FAW, or SBL larva was placed on top of the diet in each cell and was contained with a clear perforated adhesive lid. Test trays were held at approximately 26° C. and ambient relative humidity (RH) prior to grading.
(§5) After 5 days, the number of live larvae were recorded from each cell and percent control was measured using Abbott's correction formula (W. S. Abbott, J. Econ. Entomol. 18 (1925), pp. 265-267) as follows:
(§6) where X=No. of live larvae on solvent check and Y=No. of live larvae on treated diet. In Table B4 the “Expected % Control” was calculated using the method described in Colby S. R., Weeds, 1967, 15, 20-22. Bioassay 5: Neotropical Brown Stink Bug (Euschistus heros, EUSCHE, “BSB”).

[7] = system: Fall Armyworm (Spodoptera frugiperda, LAPHFR, FAW); test: Bioassay 4: fall armyworm, artificial diet, 128-cell tray; conditions: AI alone, 0.000004 wt %
Protocol: as §3, §4, §5, §6

[8] = system: Soybean Looper (Chrysodeixis includens, PSEPIN, SBL); test: Bioassay 4: soybean looper, artificial diet, 128-cell tray; conditions: AI alone, 0.000004 wt %
Protocol: as §3, §4, §5, §6

[9] = system: Sweet Potato Whitefly (Bemisia tabaci, BEMITA, SPW); test: Bioassay 2: sweet potato whitefly, cotton seedling foliar spray; conditions: AI alone
Protocol: Stock solutions were prepared with F1 as well as for each of the active ingredients individually. Test solutions were prepared from the stock solutions. Test solutions were prepared containing F1, the individual active ingredients, and mixtures of F1 with each of the active ingredients. The test solutions for F1 and the individual active ingredients were prepared by adding 500 μL of stock solution to a 25 mL glass vial, then adding 500 μL of acetone, followed by the addition of 9 mL water with 0.025% Tween® 20 to create a 0.001% (w/v) solution. The test solutions containing mixtures of F1, and the individual active ingredients were prepared by adding 500 μL of the active ingredient stock solution to a 25 mL glass vial, followed by 500 μL of the F1 stock solution, then by the addition of 9 mL water with 0.025% Tween® 20 to create a test solution containing 0.001% (w/v) F1 and 0.001% (w/v) of the active ingredient. Each test solution was serially diluted to create desired doses of test solutions (0.001% (w/v), 0.0001% (w/v), 0.00001% (w/v), 0.000001% (w/v), 0.0000001% (w/v), and 0.00000001% (w/v)).
The test solutions were tested against SPW using the following procedure: Cotton seedlings grown in 3-inch pots, pruned so that only one true leaf remained, were used as test substrate. Adult B. tabaci were allowed to colonize the cotton plants and lay eggs for 24 hours after which all adults were removed from the plants using compressed air. Plants were monitored for egg development, and when crawler emergence was underway (>25% emergence based on visual examination using a microscope), the plants were sprayed using the test solutions and methods described above for green peach aphids (GPA). Treated plants were held in a holding room at approximately 25° C. and ambient relative humidity (RH) prior to grading. Evaluation was conducted by counting the number of developed 2-3 instar nymphs per plant under a microscope 7-9 days after treatment. Percent control was measured using Abbott's correction formula (W. S. Abbott, J. Econ. Entomol. 18 (1925), pp. 265-267) as follows:
where X=No. of live nymphs on solvent check plants and Y=No. of live nymphs on treated plants. In Table B2 the “Expected % Control” was calculated using the method described in Colby S. R., Weeds, 1967, 15, 20-22. Bioassay 3: Western Flower Thrips (Frankliniella occidentalis, FRANOC, “WFT”).

Molecule | Average % Control AI ([2]; AI alone at 0.4 wt %) [%] | Average % Control AI ([1]; AI alone at 0.4 wt %) [%] | Average % Control AI ([3]; AI alone at 0.4 wt %) [%] | Average % Control AI ([4]; AI alone at 0.4 wt %) [%] | also measured
CN(C(=O)c1ccccc1)c1cccc(C(=O)Nc2c(Br)cc(C(F)(C(F)(F)F)C(F)(F)F)cc2C(F)(F)F)c1F [Broflanilide] |  |  |  |  | Average % Control AI ([1]; AI alone at 0.004 wt %): 0.0%
CCNc1nc(CC)c(C(=O)NC(C#N)c2cccs2)s1 (centres unmarked) [Ethaboxam] | 12.5 | 0.0 | 0.0 |  | 
COc1ccc(Cl)c(S(=O)(=O)NC(=O)c2cn3cc(C(F)(F)F)cc(Cl)c3n2)c1 [Fluazaindolizine] | 0.0 | 0.0 | 0.0 |  | 
O=S(=O)(CCC(F)=C(F)F)c1ncc(Cl)s1 [Fluensulfone] | 0.0 | 0.0 | 12.5 | 0.0 | 
O=[N+]([O-])/N=C1\NCCN1Cc1ccc(Cl)nc1 [Imidacloprid] |  |  |  |  | Average % Control AI [5]: 40.5%; Average % Control AI ([6]; 0.000004 wt %): 0.0%; Average % Control AI ([6]; 0.00004 wt %): 0.0%; Average % Control AI [7]: 0.0%; Average % Control AI [8]: 12.5%
CC(C)C1CCC(Cc2ccc(Cl)cc2)C1(O)Cn1cncn1 (centres unmarked) [Ipconazole] | 0.0 | 0.0 |  | 0.0 | 
CC(C)c1ccc(Cl)cc1CN(C(=O)c1c(C(F)F)nn(C)c1F)C1CC1 [Isoflucypram] |  |  | 0.0 | 0.0 | 
CNC(=O)O/N=C(\SC)C(=O)N(C)C [Oxamyl] | 0.0 | 0.0 | 0.0 | 0.0 | 
CO/C=C(/C(=O)OC)c1ccccc1COc1cccc(C(F)(F)F)n1 [Picoxystrobin] |  |  |  |  | Average % Control AI ([2]; AI alone at 0.04 wt %): 0.0%; Average % Control AI ([4]; AI alone at 0.04 wt %): 0.0%; Average % Control AI ([3]; AI alone at 0.04 wt %): 0.0%
CON(C(=O)c1cn(C)nc1C(F)F)C(C)Cc1c(Cl)cc(Cl)cc1Cl (centres unmarked) [Pydiflumetofen] |  | 0.0 | 0.0 | 0.0 | 
COC(=O)N(OC)c1ccccc1COc1ccn(-c2ccc(Cl)cc2)n1 [Pyraclostrobin] |  |  |  |  | Average % Control AI ([2]; AI alone at 0.04 wt %): 0.0%; Average % Control AI ([3]; AI alone at 0.04 wt %): 0.0%
Cc1cc(C)c(C2=C(OC(=O)CC(C)(C)C)C3(CCCC3)OC2=O)c(C)c1 [Spiromesifen] |  | 12.5 | 12.5 | 12.5 | 
O=c1c(-c2cccc(C(F)(F)F)c2)c([O-])[n+](Cc2cncnc2)c2ccccn12 [Triflumezopyrim] |  |  |  |  | Average % Control AI ([9]; Wt % AI 0.000001, 7-9 days): 10.1%; Average % Control AI ([9]; Wt % AI 0.00001, 7-9 days): 31.4%; Average % Control AI ([6]; 0.000004 wt %): 0.0%; Average % Control AI ([6]; 0.00004 wt %): 0.0%; Average % Control AI [7]: 0.0%; Average % Control AI [8]: 12.5%
Thiram | 0.0 |  | 0.0 |  | 
Trifloxystrobin | 0.0 | 16.6 |  | 20.0 | 
